Tests used:
Aβ40 = target: T1, Aβ40 (Homo sapiens, UniProt P05067); assay: TEM imaging of DLS filtrates; assay type: biochemical; details: for Ranking TEM: scale 1 to 5 (1 = best, 5 = worst), qualitative
T1 construct: Lyophilized Aβ40 was monomerized following previous procedures; purchased GenScript
Method: Samples for TEM were prepared using the DLS filtrates following their analysis. An aliquot (20 µL) was added directly to a copper-coated formvar/carbon 300 mesh grid with a 63 µm pore size (Ted Pella). After settling for 1 min, the solvent was wicked away, then the grid was stained using 2% uranyl acetate (20 µL). After standing for one minute, the solvent was wicked away, and the grid was washed using dH2O (20 µL), which stayed on the grid for one minute before being wicked away. The grids were stored at room temperature until analysis. TEM images were collected using a high-resolution JEOL JEM 2100F operating at 200 kV.
The final evaluative step in the Aβ40 aggregation assay was imaging the samples using transmission electron microscopy (TEM). The samples used in the preparation of the TEM grids were those of the DLS filtrates, thereby allowing for a direct comparison between experimental methods, ultimately resulting in the same sample being measured by three different instruments. […] In order to determine the impact of each complex on Aβ40, multiple images were taken from each prepared grid (Figure S21), thereby providing an accurate representation of the particles.

[1] = tested on: pheochromocytoma cells (PC-12); assay: MTT cell viability assay, PC-12 cells; assay type: cell-based, Rattus norvegicus; details: 24 h
Method: Cultures of adherent Rattus norvegicus pheochromocytoma cells (PC-12; ATCC CRL-1721) and axenic Rattus norvegicus C6 glioma cells (ATTC CCL-107) were prepared as previously reported. The cells were cultured using Dulbecco’s Modified Eagle’s medium with low glucose, sodium pyruvate, and without phenol red or L-glutamine (DMEM REF:11054-020; GIBCO; Waltham, MA, USA) and supplemented with 1.5% (v/v) heat-inactivated fetal bovine serum (GIBCO; Waltham, MA, USA), 10% (v/v) sterile filtered horse serum (Sigma-Aldrich, St. Louis, MO, USA), and 4% sterile L-glutamine (Sigma-Aldrich; St. Louis, MO, USA). […]
For the viability assays, both cell types were grown to confluency before being trypsinized, resuspended in 1 mL of complete medium per confluent well of a 6-well plate, diluted ten-fold, and then counted with a Scepter 2.0 Handheld Automated Cell Counter (Millipore, Burlington, MA, USA) affixed with a 60 µm sensor. […]
To assess the viability of the cells with and without Ru additions, cell viability tests were performed using an MTT assay following the procedure of Mosmann with the following variations: Before adding the MTT reagent (5 mg/mL water), 90 µL of the complete medium was removed from each well, and 90 µL of incomplete medium was added. […] The absorbance values were recorded using a Bio-Rad® Microplate Reader Benchmark at 595 nm. […]

T1 sequence (P05067 672-711 limits assumed): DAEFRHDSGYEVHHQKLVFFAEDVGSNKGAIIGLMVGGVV

Row | Molecule | appearance of Aβ40 particles in TEM images (Aβ40; DLS filtrates after 6 h co-incubation) | Ranking TEM (Aβ40) | toxicity (MTT) ([1]; 20 and 40 µM) | IC50 (cell viability) ([1]; tested 0.2–40 µM)
1 | [Ru(η^6-p-cymene)(4,4′-diamino-2,2′-bipyridine)Cl]PF6 [RuBA] | most dispersed and least dense particles | 1 |  | 
2 | [Ru(η^6-p-cymene)(4,4′-dimethoxy-2,2′-bipyridine)Cl]PF6 [RuBMeO] |  | 5 |  | 
3 | Cc1ccc(C(C)C)cc1.Cc1ccnc(-c2cc(C)ccn2)c1.F[P-](F)(F)(F)(F)F.[Cl-].[Ru+2] [RuBMe, [Ru(η^6-p-cymene)(4,4′-dimethyl-2,2′-bipyridine)Cl]PF6] |  | 3 |  | 
4 | Cc1ccc(C(C)C)cc1.F[P-](F)(F)(F)(F)F.[Cl-].[Ru+2].c1ccc(-c2ccccn2)nc1 [RuB, [Ru(η^6-p-cymene)(2,2′-bipyridine)Cl]PF6] |  | 2 |  | 
5 | [Ru(η^6-p-cymene)(4,4′-di-tert-butyl-2,2′-bipyridine)Cl]PF6 [RuBtB] |  | 4 | substantial toxicity | below the concentrations evaluated

From paper PMC12024814, “Ruthenium(II)–Arene Complexes with a 2,2′-Bipyridine Ligand as Anti-Aβ Agents” (Biomolecules, 2025)
